From ChEMBL document CHEMBL4425085, “Challenges and Perspectives on the Development of Small-Molecule EGFR Inhibitors against T790M-Mediated Resistance in Non-Small-Cell Lung Cancer” (J Med Chem, 2016)

Legend:
A-431 = experiment: Antiproliferative activity against human A431 cells expressing wild type EGFR by MTS assay; type: cell-based
NCI-H1975 [1] = experiment: Antiproliferative activity against human NCI-H1975 cells expressing EGFR L858R/T790M double mutant by MTS assay; type: functional, cell-based
NCI-H1975 [2] = experiment: Antiproliferative activity against gefitinib resistant human NCI-H1975 cells expressing EGFR L858R/T790M double mutant after 72 hrs by MTS assay; type: functional, cell-based; conditions: NCI-H1975, 72 h
BaF3 [3] = experiment: Antiproliferative activity against gefitinib resistant mouse BA/F3 cells expressing EGFR L858R/T790M double mutant after 72 hrs by MTS assay; type: functional, cell-based; conditions: BaF3, 72 h
BaF3 [4] = experiment: Antiproliferative activity against gefitinib sensitive mouse BA/F3 cells expressing EGFR exon 19 del E746_A750 activating mutant after 72 hrs by MTS assay; type: functional, cell-based; conditions: BaF3, 72 h
BaF3 [5] = experiment: Antiproliferative activity against mouse BA/F3 cells expressing wild type EGFR after 72 hrs by MTS assay; type: cell-based; conditions: BaF3, 72 h
PC-9 = experiment: Antiproliferative activity against gefitinib resistant human PC9 cells expressing EGFR del E746_A750/T790M mutant after 72 hrs by MTS assay; type: functional, cell-based; conditions: PC-9, 72 h
BaF3 [6] = experiment: Selectivity ratio of IC50 for gefitinib sensitive mouse BA/F3 cells expressing wild type EGFR to IC50 for gefitinib resistant mouse BA/F3 cells expressing EGFR L858R/T790M double mutant
BaF3 [7] = experiment: Potency index, ratio of gefitinib IC50 to compound IC50 for gefitinib resistant mouse BA/F3 cells expressing EGFR L858R/T790M double mutant; type: functional
NCI-H1975 [8] = experiment: Potency index, ratio of gefitinib IC50 to compound IC50 for gefitinib resistant human NCI-H1975 cells expressing EGFR L858R/T790M double mutant; type: functional
[9] = molecular target: Epidermal growth factor receptor (Homo sapiens, UniProt P00533); experiment: Binding affinity to wild type partial length human EGFR expressed in bacterial system by KINOMEscan assay
Chain of Epidermal growth factor receptor (Homo sapiens, UniProt P00533) (P00533 whole entry): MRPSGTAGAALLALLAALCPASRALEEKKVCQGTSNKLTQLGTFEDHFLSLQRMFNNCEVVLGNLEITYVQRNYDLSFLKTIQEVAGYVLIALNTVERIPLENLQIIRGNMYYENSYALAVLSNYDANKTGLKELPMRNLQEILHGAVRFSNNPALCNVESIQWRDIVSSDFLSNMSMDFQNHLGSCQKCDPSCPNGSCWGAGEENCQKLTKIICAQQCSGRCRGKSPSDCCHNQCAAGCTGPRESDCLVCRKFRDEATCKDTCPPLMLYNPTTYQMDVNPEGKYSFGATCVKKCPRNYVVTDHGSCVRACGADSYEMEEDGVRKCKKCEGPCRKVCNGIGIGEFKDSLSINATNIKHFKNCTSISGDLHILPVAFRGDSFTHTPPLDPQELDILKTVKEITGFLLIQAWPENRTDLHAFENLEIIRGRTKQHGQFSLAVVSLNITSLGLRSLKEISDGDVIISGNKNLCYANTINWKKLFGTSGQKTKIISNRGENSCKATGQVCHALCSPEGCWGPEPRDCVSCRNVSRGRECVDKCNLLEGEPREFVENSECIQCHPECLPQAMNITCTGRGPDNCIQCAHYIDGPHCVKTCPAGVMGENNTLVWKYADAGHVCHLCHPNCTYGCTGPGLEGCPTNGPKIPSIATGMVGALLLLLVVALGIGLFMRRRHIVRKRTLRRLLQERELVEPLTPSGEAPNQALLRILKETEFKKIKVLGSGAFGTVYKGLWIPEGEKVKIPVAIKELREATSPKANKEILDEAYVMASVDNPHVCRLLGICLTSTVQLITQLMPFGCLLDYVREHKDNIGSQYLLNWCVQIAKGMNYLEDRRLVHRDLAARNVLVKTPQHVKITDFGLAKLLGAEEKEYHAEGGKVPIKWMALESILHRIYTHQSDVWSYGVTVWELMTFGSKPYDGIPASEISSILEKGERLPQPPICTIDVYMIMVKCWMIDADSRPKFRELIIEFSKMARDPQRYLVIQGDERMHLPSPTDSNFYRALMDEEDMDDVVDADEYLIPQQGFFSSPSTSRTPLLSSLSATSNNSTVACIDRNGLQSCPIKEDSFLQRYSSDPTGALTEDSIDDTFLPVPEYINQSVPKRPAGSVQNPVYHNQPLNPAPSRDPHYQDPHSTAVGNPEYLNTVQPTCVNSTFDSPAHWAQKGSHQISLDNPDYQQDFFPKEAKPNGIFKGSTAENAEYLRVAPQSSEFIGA

[10] = molecular target: Epidermal growth factor receptor (Homo sapiens, UniProt P00533, L858R/T790M); experiment: Binding affinity to partial length human EGFR L858R/T790M double mutant expressed in mammalian system by KINOMEscan assay
Chain of Epidermal growth factor receptor (Homo sapiens, UniProt P00533, L858R/T790M) (P00533 25-1210 T790M/L858R limits assumed): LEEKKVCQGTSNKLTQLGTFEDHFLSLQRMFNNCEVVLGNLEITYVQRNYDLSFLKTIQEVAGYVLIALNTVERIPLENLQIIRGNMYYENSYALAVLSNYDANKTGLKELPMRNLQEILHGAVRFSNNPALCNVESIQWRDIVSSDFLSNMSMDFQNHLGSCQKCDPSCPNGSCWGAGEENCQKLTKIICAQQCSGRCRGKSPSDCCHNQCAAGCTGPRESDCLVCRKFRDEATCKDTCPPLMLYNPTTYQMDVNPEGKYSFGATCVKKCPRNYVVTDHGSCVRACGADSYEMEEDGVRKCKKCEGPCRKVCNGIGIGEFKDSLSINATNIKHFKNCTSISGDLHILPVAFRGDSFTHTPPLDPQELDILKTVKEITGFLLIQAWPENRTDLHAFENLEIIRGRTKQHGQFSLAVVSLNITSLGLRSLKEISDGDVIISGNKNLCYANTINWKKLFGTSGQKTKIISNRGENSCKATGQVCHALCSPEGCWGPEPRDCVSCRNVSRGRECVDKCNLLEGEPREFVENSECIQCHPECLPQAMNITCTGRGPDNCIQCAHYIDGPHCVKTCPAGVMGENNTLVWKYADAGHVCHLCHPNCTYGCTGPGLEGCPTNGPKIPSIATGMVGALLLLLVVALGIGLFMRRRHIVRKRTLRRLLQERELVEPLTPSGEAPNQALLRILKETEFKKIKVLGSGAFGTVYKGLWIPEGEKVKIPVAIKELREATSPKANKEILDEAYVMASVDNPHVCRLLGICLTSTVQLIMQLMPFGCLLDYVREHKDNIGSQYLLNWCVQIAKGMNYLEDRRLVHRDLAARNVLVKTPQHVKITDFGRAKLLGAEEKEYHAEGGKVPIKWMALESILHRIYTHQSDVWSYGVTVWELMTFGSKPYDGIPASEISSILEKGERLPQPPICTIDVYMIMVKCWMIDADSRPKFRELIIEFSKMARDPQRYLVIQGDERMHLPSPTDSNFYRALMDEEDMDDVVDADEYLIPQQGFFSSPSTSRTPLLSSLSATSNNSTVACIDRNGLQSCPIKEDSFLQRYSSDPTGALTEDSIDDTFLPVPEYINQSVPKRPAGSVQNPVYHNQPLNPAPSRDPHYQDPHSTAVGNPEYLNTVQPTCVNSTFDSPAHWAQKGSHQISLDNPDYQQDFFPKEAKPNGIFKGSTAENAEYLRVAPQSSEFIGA

Homo sapiens = organism: Homo sapiens; experiment: Selectivity ratio of Kd for wild type partial length human EGFR to Kd for partial length human EGFR L858R/T790M double mutant
[11] = Selectivity ratio of IC50 for human A431 cells expressing wild type EGFR to IC50 for human NCI-H1975 cells expressing EGFR L858R/T790M double mutant
NCI-H1975 [12] = experiment: Antiproliferative activity against human NCI-H1975 cells expressing EGFR L858R/T790M double mutant assessed as decrease in cell viability after 48 hrs by WST assay; type: functional, cell-based; conditions: NCI-H1975, 48 h

Compound | IC50 (A-431) [nM] | IC50 (NCI-H1975 [1]) [nM] | IC50 (NCI-H1975 [2]) [nM] | IC50 (BaF3 [3]) [nM] | IC50 (BaF3 [4]) [nM] | IC50 (BaF3 [5]) [nM] | IC50 (PC-9) [nM] | Kd [9] [nM] | Kd [10] [nM] | Selectivity ratio (Homo sapiens) | IC50 (NCI-H1975 [12]) [nM] | Ratio IC50 (BaF3 [6]) | Ratio IC50 (BaF3 [7]) | Ratio IC50 (NCI-H1975 [8]) | Ratio IC50 [11]
C=CC(=O)Nc1cccc(Oc2nc(Nc3ccc(N4CCN(C)CC4)cc3OC)ncc2Cl)c1 | 1040 | 55 | 47 | 8 | 3 | 113 | 14 | – | – | – | – | – | – | – | –
C=CC(=O)Nc1cccc(Oc2nc(Nc3ccc(N4CCN(C)CC4)cc3)ncc2Cl)c1 | – | – | 29 | 5 | 2 | 24 | – | – | – | – | – | 5 | 30 - 100 | 30 - 100 | –
C=CC(=O)Nc1cccc(N2C3=NCCCCN3C(=O)c3cnc(Nc4ccc(N5CCN(C)CC5)cc4OC)nc32)c1 | 1540 | 648 | – | – | – | – | – | 17 | 0.88 | 20 | – | – | – | – | 3
CN(C)C/C=C/C(=O)Nc1cc2c(Nc3ccc(F)c(Cl)c3)ncnc2cc1O[C@H]1CCOC1 [AFATINIB] | – | – | – | – | – | – | – | – | – | – | 900 | – | – | – | –
C=CC(=O)Nc1cccc(Sc2nc(Nc3ccc(N4CCN(C)CC4)cc3)ncc2Cl)c1 | – | – | 9 | 9 | 2 | 32 | – | – | – | – | – | 4 | 30 - 100 | 30 - 100 | –
C=CC(=O)Nc1cccc(-n2c3nc(Nc4ccc(N5CCN(C)CC5)cc4OC)ncc3c(=O)n3c4ccccc4nc23)c1 | 3570 | 307 | – | – | – | – | – | 110 | 1.1 | 100 | – | – | – | – | 12

Second part, led by results:

IC50 (A-431) [nM] | IC50 (NCI-H1975 [1]) [nM] | IC50 (NCI-H1975 [2]) [nM] | IC50 (BaF3 [3]) [nM] | IC50 (BaF3 [4]) [nM] | IC50 (BaF3 [5]) [nM] | IC50 (PC-9) [nM] | Kd [9] [nM] | Kd [10] [nM] | Selectivity ratio (Homo sapiens) | IC50 (NCI-H1975 [12]) [nM] | Compound | Ratio IC50 (BaF3 [6]) | Ratio IC50 (BaF3 [7]) | Ratio IC50 (NCI-H1975 [8]) | Ratio IC50 [11]
5250 | 396 | – | – | – | – | – | 420 | 3.1 | 136 | – | C=CC(=O)Nc1cccc(-n2c3nc(Nc4ccc(N5CCN(C)CC5)cc4OCC)ncc3c(=O)n3ccnc23)c1 | – | – | – | 13
14500 | 86 | – | – | – | – | – | 310 | 2.6 | 119 | – | C=CC(=O)Nc1cccc(-n2c3nc(Nc4ccc(N5CCN(NC)CC5)cc4OC)ncc3c(=O)n3ccnc23)c1 | – | – | – | 169
> 30000 | 476 | – | – | – | – | – | 950 | 6.1 | 156 | – | C=CC(=O)Nc1cccc(-n2c3nc(Nc4ccc(N5CCOCC5)cc4OC)ncc3c(=O)n3ccnc23)c1 | – | – | – | 63
2980 | 143 | – | – | – | – | – | 140 | 1.8 | 78 | – | C=CC(=O)Nc1cccc(-n2c3nc(Nc4ccc(N5CCN(C)CC5)cc4OC)ncc3c(=O)n3ccnc23)c1 | – | – | – | 21
